# From US10899709B2, “Novel-alkynyl-substituted 3-phenylpyrrolidine-2,4-diones and use thereof as herbicides” (BAYER CROPSCIENCE AKTIENGESELLSCHAFT, priority 2015, dated 2021)
# Key:
# Type in all cases: in vivo
# [1] = tested on: Alopecurus myosuroides; experiment: Post-emergence herbicidal effect; details: visual assessment after about 3 weeks
# Procedure: (§1) Seeds of monocotyledonous and dicotyledonous weed and crop plants are laid out in sandy loam in wood-fibre pots, covered with soil and cultivated in a greenhouse under good growth conditions. 2 to 3 weeks after sowing, the test plants are treated at the one-leaf stage. The compounds according to the invention, formulated in the form of wettable powders (WP) or as emulsion concentrates (EC), are then sprayed as aqueous suspension or emulsion at a water application rate of 600 to 800 l/ha (converted) with the addition of 0.2% of wetting agent onto the green parts of the plants. After the test plants have been left to stand in the greenhouse under optimal growth conditions for about 3 weeks, the action of the preparations is assessed visually in comparison to untreated controls (herbicidal action in percent (%): 100% activity=the plants have died, 0% activity=like control plants).
# [2] = tested on: Setaria viridis; experiment: Post-emergence herbicidal effect; details: visual assessment after about 3 weeks
# Procedure: as §1
# [3] = tested on: Lolium multiflorum; experiment: Post-emergence herbicidal effect; details: visual assessment after about 3 weeks
# Procedure: as §1
# [4] = tested on: Avena fatua; experiment: Post-emergence herbicidal effect; details: visual assessment after about 3 weeks
# Procedure: as §1
# [5] = tested on: Echinochloa crus-galli; experiment: Post-emergence herbicidal effect; details: visual assessment after about 3 weeks
# Procedure: as §1
# [6] = tested on: Alopecurus myosuroides; experiment: Pre-emergence herbicidal effect; details: visual score after 3 weeks
# Description: (§2) Seeds of monocotyledonous and dicotyledonous weed plants and crop plants are laid out in wood-fibre pots in sandy loam and covered with soil. The compounds according to the invention formulated in the form of wettable powders (WP) or as emulsion concentrates (EC) are then applied as aqueous suspension or emulsion at a water application rate of 600 to 800 l/ha (converted) with the addition of 0.2% wetting agent to the surface of the covering soil. After the treatment, the pots are placed in a greenhouse and kept under good growth conditions for the trial plants. The damage to the test plants is scored visually after a test period of 3 weeks by comparison with untreated controls (herbicidal activity in percent (%): 100% activity=the plants have died, 0% activity=like control plants).
# [7] = tested on: Setaria viridis; experiment: Pre-emergence herbicidal effect; details: visual score after 3 weeks
# Description: as §2
# [8] = tested on: Lolium multiflorum; experiment: Pre-emergence herbicidal effect; details: visual score after 3 weeks
# Description: as §2
# [9] = tested on: Avena fatua; experiment: Pre-emergence herbicidal effect; details: visual score after 3 weeks
# Description: as §2
# [10] = tested on: Echinochloa crus-galli; experiment: Pre-emergence herbicidal effect; details: visual score after 3 weeks
# Description: as §2
Compound,Post-emergence effectiveness ALOMY ([1]; 20 g/ha),Post-emergence effectiveness ALOMY ([1]; 80 g/ha),Post-emergence effectiveness SETVI ([2]; 20 g/ha),Post-emergence effectiveness SETVI ([2]; 80 g/ha),Post-emergence effectiveness LOLMU ([3]; 20 g/ha),Post-emergence effectiveness LOLMU ([3]; 80 g/ha),Post-emergence effectiveness AVEFA ([4]; 20 g/ha),Post-emergence effectiveness AVEFA ([4]; 80 g/ha),Post-emergence effectiveness ECHCG ([5]; 20 g/ha),Post-emergence effectiveness ECHCG ([5]; 80 g/ha),Pre-emergence effectiveness ALOMY ([6]; 320 g/ha),Pre-emergence effectiveness SETVI ([7]; 80 g/ha),Pre-emergence effectiveness SETVI ([7]; 320 g/ha),Pre-emergence effectiveness LOLMU ([8]; 320 g/ha),Pre-emergence effectiveness AVEFA ([9]; 320 g/ha),Pre-emergence effectiveness ECHCG ([10]; 80 g/ha),Pre-emergence effectiveness ECHCG ([10]; 320 g/ha),Pre-emergence effectiveness ALOMY ([6]; 80 g/ha),Pre-emergence effectiveness LOLMU ([8]; 80 g/ha),Pre-emergence effectiveness AVEFA ([9]; 80 g/ha)
CC#Cc1cc(C)c(C2=C(OC(=O)C(C)C)C3(CCC(COC)C3)NC2=O)c(CC)c1 (stereo not shown) [Example Ia-9],100%,100%,100%,100%,90%,90%,90%,90%,100%,100%,–,–,–,–,–,–,–,–,–,–
COCC1CCC2(C1)NC(=O)C(c1c(C)cc(C#CC3CC3)cc1C)=C2O (mixture of isomers) [Example I-14],–,80%,90%,90%,90%,90%,–,–,90%,100%,100%,90%,90%,100%,80%,100%,100%,–,–,–
CC#Cc1cc(CC)c(C2=C(O)C3(CCC(CCOC)CC3)NC2=O)c(CC)c1 (stereo not shown) [Example I-1],–,90%,90%,100%,90%,90%,–,90%,100%,100%,100%,100%,100%,100%,80%,100%,100%,80%,100%,–
CC#Cc1cc(C)c(C2=C(OC(=O)C(C)C)C3(CCC(COC)C3)NC2=O)c(CC)c1 (stereo not shown) [Example Ia-6],–,100%,–,100%,90%,90%,–,–,100%,100%,100%,100%,100%,100%,90%,100%,100%,100%,100%,90%
CCc1cc(C#CC2CC2)cc(C)c1C1=C(OC(=O)C(C)C)C2(CCC(COC)C2)NC1=O (stereo not shown) [Example Ia-12],90%,90%,100%,100%,90%,100%,100%,100%,100%,100%,100%,90%,100%,100%,90%,100%,100%,100%,100%,–
COCC1CCC2(C1)NC(=O)C(c1c(C)cc(C#CC3CC3)cc1C)=C2O (stereo not shown) [Example I-13],–,80%,90%,90%,–,90%,–,–,90%,90%,100%,90%,100%,90%,–,100%,100%,–,–,–
CC#Cc1cc(C)c(C2=C(O)C3(CCC(COC)C3)NC2=O)c(CC)c1 (stereo not shown) [Example I-9],100%,100%,100%,100%,100%,100%,90%,100%,100%,100%,100%,90%,100%,100%,90%,100%,100%,100%,80%,–
CC#Cc1cc(C)c(C2=C(OC(=O)C(C)C)C3(CCC(COC)C3)NC2=O)c(CC)c1 (stereo not shown) [Example Ia-7],–,100%,–,80%,–,100%,–,–,90%,100%,–,100%,–,–,–,100%,–,100%,100%,–
CCc1cc(C#CC2CC2)cc(C)c1C1=C(OC(=O)C(C)C)C2(CCC(COC)C2)NC1=O (stereo not shown) [Example Ia-11],–,90%,80%,90%,–,90%,–,–,100%,100%,100%,100%,100%,100%,80%,100%,100%,100%,100%,–
CC#Cc1cc(C)c(C2=C(OS(C)(=O)=O)C3(CCC(COC)C3)NC2=O)c(CC)c1 (stereo not shown) [Example Ia-16],–,–,–,–,–,–,–,–,–,–,90%,90%,90%,90%,–,90%,100%,90%,–,–
CC#Cc1cc(CC)c(C2=C(OC(=O)C(C)C)C3(CCC(OCCOC)CC3)NC2=O)c(CC)c1 (stereo not shown) [Example Ia-13],–,–,–,80%,–,–,–,–,80%,100%,100%,100%,100%,100%,100%,100%,100%,100%,100%,80%
